Test results reported in PMC11324436 (2024).

Tests used:
Test in all cases: NMM fluorescence enhancement
[1] = system: 55PYO2A (DNA, aptamer) CTAGGAATCAGGAGCGAATGTTAGAGTATTTGGATAGTATGTTTATTGTATCGGC; conditions: 10 mM KCl, 2 mM MgSO4 (added), 0.37 mM CaCl2; SSMB1 pH 5.9, 23 °C; 2 µM aptamer, 2 µM NMM; no enhancement over control
[2] = system: 55PYO4A (DNA, aptamer) GATCGGAATGGGAGCGAATGAGGAGGGAGCGCGGACATGGTGCAGCAGCCCGACG; conditions: 10 mM KCl, 2 mM MgSO4 (added), 0.37 mM CaCl2; SSMB1 pH 5.9, 23 °C; 2 µM aptamer, 2 µM NMM
[3] = system: 15THR1A (DNA, aptamer) GGTTGGTGTGGTTGG; conditions: 10 mM KCl, 2 mM MgSO4 (added), 0.37 mM CaCl2; SSMB1 pH 5.9, 23 °C; 2 µM aptamer, 2 µM NMM
[4] = system: Oligo 5637 (DNA, single strand) GCCTGTTGTGAGCCTCCTGTCGAAGTATGCGATAGGAGCGAATGATATATATCAAGTTACCACACGGATGTACTTGCTTGAGCGTTTATTCTTGTCTCCC; conditions: 10 mM KCl, 2 mM MgSO4 (added), 0.37 mM CaCl2; SSMB1 pH 5.9, 23 °C; 2 µM aptamer, 2 µM NMM; no enhancement over control

binding [1]: no | binding [2]: yes | binding [3]: yes | binding [4]: no
SMILES: CCc1c(C)c2cc3nc(cc4nc(cc5c(CC)c(C)c(cc1[nH]2)n5C)C(C)=C4CCC(=O)O)C(CCC(=O)O)=C3C
